Data: patent US20140335210A1, “METHOD AND AGROCHEMICAL COMPOSITION FOR USING LARCH WOOD EXTRACTS IN AGRICULTURE” (FLAVITPURE, INC., priority 2013, published 2014)
Like-named read-outs stand apart in the source and are kept apart here.

Legend:
P. expansum [1] = settings: in vitro, agarized apple juice medium; cited from earlier work
[2] = test system: Barley (Hordeumvulgare L.) seeds; settings: cited from earlier work
cress seedlings = settings: biphasic, dose dependent; cited from earlier work
[3] = test system: polar transport of indol-3yl-acetic acid; settings: 4-6 h; stimulation of basipetal, inhibition of acropetal transport; cited from earlier work
Fusarium = settings: about 0.60 to 0.70 mg per 100 g dry weight accumulated in the testa of ant18 mutants
cut seed potatoes = settings: cited from earlier work
white potato tissue = settings: biphasic, dose dependent; cited from earlier work
[4] = test system: vacuolar membrane (H+-ATPase and H+-pyrophosphatase), slow vacuolar (SV) channel; settings: cited from earlier work
P. expansum [5] = test system: P. expansum; parameters: reduction of lesion diameters: concentration or dose not given beside the values; settings: cited from earlier work; for reduction of lesion diameters: apples Golden Delicious, 16° C. in the dark; for patulin accumulation in apples: in vivo, lesions analyzed by HPLC after 14 days
[6] = test system: dihydrotlavonol 4-reductase (DFR); settings: grape cell cultures, addition of compound; cited from earlier work
[7] = test system: cyp705a5 mutant phenotype; settings: 15 μM in the growth medium; cited from earlier work
[8] = low-grade seeds soaked in aqueous 10^-4 M

Row | Structure (SMILES) | fungal growth (P. expansum [1]) | reduction of patulin accumulation (P. expansum [1]) | polarity of the transport of indol-3yl-acetic acid [3] | reduction of lesion diameters (P. expansum [5]; after 6 days of incubation) | reduction of lesion diameters (P. expansum [5]; after 10 days of incubation) | reduction of lesion diameters (P. expansum [5]; after 14 days of incubation) | patulin accumulation in apples (P. expansum [5]) | further results
1 | O=C1c2c(O)cc(O)cc2OC(c2ccc(O)c(O)c2)C1O (stereo not drawn) [Dihydroquercetin (taxifolin)] | no inhibition | 48% | increased | 97% | 71% | 27% | no reduction | activity of ascorbate peroxidase (AsP) ([2]; (+DHQ)-plants): increased more significantly; ratio between TBARs content and AsP activity ([2]; leaves, optimal soil conditions and flooding): lower; germination rate in comparison with the same seeds soaked in water [2, 8]: twofold; mold on seeds [2, 8]: no mold; root growth ([2]; seedlings from pretreated seeds vs non-pretreated): higher; shoot growth ([2]; seedlings from similarly germinated seeds, with vs without pretreatment): did not differ; TBARs content ([2]; soil flooding, roots and leaves, (+DHQ) vs (-DHQ) seedlings): lower; root growth of cress seedlings (cress seedlings): increased; resistance of seeds to Fusarium infection (Fusarium): extraordinary resistance; fungal mold growth on treated seed pieces (cut seed potatoes; incubated in a controlled environment): adequately retarded; thickness of the suberized layer formed below the cut surface (cut seed potatoes; treated seed potato tissue): increases; oxygen consumption of white potato tissue (white potato tissue): stimulated; active and passive transport systems of the vacuolar membrane [4]: affected; effect on the membranes of isolated vacuoles ([4]; isolated vacuoles): strong stabilizing effect; increase in dihydrotlavonol 4-reductase (DFR) activity [6]: 10 fold; phenotype restored, of the wild type gravity response [7]: ≥ 100%
2 | COc1cc(/C=C/C(=O)O)ccc1O [ferulic acid] | – | – | increased | – | – | – | – | –
3 | O=c1c(O)c(-c2ccc(O)cc2O)oc2cc(O)cc(O)c12 [morin] | – | – | increased | – | – | – | – | –
4 | C[C@@H]1O[C@@H](O[C@H]2[C@H](Oc3cc(O)c4c(c3)O[C@H](c3ccc(O)cc3)CC4=O)O[C@H](CO)[C@@H](O)[C@@H]2O)[C@H](O)[C@H](O)[C@H]1O [naringin] | – | – | increased | – | – | – | – | –
5 | O=C1/C(=C/c2ccc(O)c(O)c2)Oc2cc(O)ccc21 [sulfuretin] | – | – | increased | – | – | – | – | –
6 | O=c1ccc2ccc(O)cc2o1 [umbelliferone, reference compound] | no inhibition | 53% | – | 100% | 68% | 38% | no reduction | –
